Reference: PubChem BioAssay (NCI)
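Grown in 96-well plates, cells were treated for 48 hours with each compound at five concentrations. Insufficient inhibition: endpoint recorded as highest concentration tested. Definition used: TGI = concentration required for complete inhibition of growth.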

Assays:
Experiment in all cases: NCI-60 cell line screen, 48 h
PC-3 prostate = system: PC-3 prostate
MDA-MB-435 = system: MDA-MB-435
KM20L2 colon = system: KM20L2 colon
SN12C renal = system: SN12C renal
SNB-78 CNS = system: SNB-78 CNS
DLD-1 colon = system: DLD-1 colon
NCI-H226 lung = system: NCI-H226 lung
DMS 114 small cell lung = system: DMS 114 small cell lung
SF-539 CNS = system: SF-539 CNS
NCI-H23 lung = system: NCI-H23 lung
A549 NSCLC = system: A549 NSCLC
SK-OV-3 ovarian = system: SK-OV-3 ovarian

SMILES | TGI (PC-3 prostate) | TGI (MDA-MB-435) | TGI (KM20L2 colon) | TGI (SN12C renal) | TGI (SNB-78 CNS) | TGI (DLD-1 colon) | TGI (NCI-H226 lung) | TGI (DMS 114 small cell lung) | TGI (SF-539 CNS) | TGI (NCI-H23 lung) | TGI (A549 NSCLC) | TGI (SK-OV-3 ovarian)
O=C[C@@H](CO)O[C@H](C=O)c1c[nH]c(=O)[nH]c1=O | 790 µM | 155 µM | 310 µM | 551 µM | 890 µM | 493 µM | 552 µM | 232 µM | 428 µM | 539 µM | 1020 µM | 473 µM
COc1c(C=O)c2c(c(OC)c1OC)-c1ccc(OC)c(=O)cc1[C@@H](NC(C)=O)CC2 | > 100 µM | 24.6 µM | 0.218 µM | > 100 µM | > 67.6 µM | > 100 µM | 4.17 µM | 0.0364 µM | 0.0644 µM | 3.47 µM | > 100 µM | 23.1 µM
Cc1c2cc[n+](C)cc2c(C)c2c1sc1ccccc12 | 13.1 µM | 6.18 µM | 31.8 µM | 0.747 µM | 8.41 µM | 51.2 µM | 2.11 µM | 2.57 µM | 2.01 µM | 2.29 µM | 3.46 µM | 14.3 µM
COc1cccc2c1C(=O)C=CC2=O | – | 26.2 µM | 30.6 µM | 27.4 µM | 9.3 µM | 39 µM | 38.3 µM | 10.3 µM | 30.1 µM | 30 µM | 40.4 µM | 36.2 µM
CN1C(=O)CC(c2cccc(C3CC(=O)N(C)C3=O)n2)C1=O (configuration not stated) | – | – | > 100 µM | > 100 µM | > 100 µM | > 100 µM | > 100 µM | > 100 µM | > 100 µM | > 100 µM | > 100 µM | > 100 µM
COc1ccccc1/C=C(\C#N)c1ccccc1 | – | – | > 100 µM | > 100 µM | > 100 µM | > 100 µM | > 100 µM | 46.2 µM | > 100 µM | > 100 µM | > 100 µM | 84.3 µM
COc1ccc(C2CC(=O)c3c(O)cc(O)cc3O2)cc1O (configuration not stated) | – | – | > 100 µM | > 100 µM | > 100 µM | > 100 µM | > 100 µM | > 100 µM | > 100 µM | > 100 µM | > 100 µM | > 100 µM
